From US20110190492A1, “DIAGNOSTIC PROBE FOR CONFORMATION DISEASE” (TOHOKU UNIVERSITY, priority 2005, published 2011)

How the values were obtained:
[1] = Acute toxicity test, intravenous administration to mice; assay type: in vivo; conditions: mice observed for 7 days
Protocol: The compounds of the invention were tested for their acute toxicity through intravenous administration thereof to mice. Four Crj:CD1 male mice formed one test group, and some test groups of those mice were used (the mean body weight of the mice of each group was from 31 to 32 g). A test compound was dissolved in a mixture of 1 N HCl, polyethylene glycol-400 and distilled water, or dissolved in DMSO, and then diluted with distilled water. This was administered to each mouse via its tail vein.

amyloid β protein = target: T1, amyloid β protein (Homo sapiens, UniProt P05067); assay: Staining test on a brain section of an Alzheimer disease patient (amyloid β protein); assay type: binding, human (Alzheimer disease patient); conditions: 100 μM compound in 50% ethanol, 10 minutes, fluorescence microscopy
T1 construct: from tissue; host or cells: paraffin-embedded human brain sections (temporal lobe, hippocampus) of Alzheimer disease patients
T1 sequence (P05067 672-713 limits assumed): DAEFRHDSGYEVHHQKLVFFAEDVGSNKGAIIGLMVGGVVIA
Excerpt: (1) Brain specimens at the temporal lobe and the hippocampus of patients to which a definitive diagnosis of Alzheimer disease had been given, and those of normal senile persons were used. The specimens were given by our coworker, Fukushimura Hospital, Longevity Medicine Institute, and we were given their consent of use of the specimens for our study purpose by the bereaved of the patients (Fukushimura Hospital Ethical Review Board Approval No. 20).
(2) The paraffin-embedded brain tissue was cut into slices having a thickness of 6 μm or 8 μm, and extended and dried on a slide. The paraffin brain section was processed for paraffin removal in xylene twice for 10 minutes, 100% ethanol twice for 5 minutes, 90% ethanol for 5 minutes and running water for 10 minutes in that order.
(3) For pretreatment prior to the staining treatment with a compound of the invention, the sections were processed for autofluorescence removal with lipofuscin. First, the paraffin-removed sections were dipped in 0.25% KMnO4 solution for 20 minutes. These were washed with PBS, twice for 2 minutes, then dipped in 0.1% K2S2O5/oxalic acid solution for about 5 seconds, and then further washed with PBS, three times for 2 minutes.
(4) About 150 μl of a 100 μM solution of a compound of the invention dissolved in 50% ethanol was dropwise applied to the section and reacted for 10 minutes. After dipped five times in tap water, the section was entrapped with Fluor Save Reagent (Calbiochem), and analyzed through microscopy with a fluorescence microscope (Nikon, Eclipse 80i). The images were taken with a digital camera (Nikon Dxm 1200F or Photometrics' Cool SNAP ES).

[2] = test system: histidine-requiring Salmonella typhimurium TA100 and TA98 strains; assay: Mutagenicity test (reverse mutation test); assay type: cell-based
Protocol: In view of their use, it is desirable that the compounds of the invention have no mutagenicity or have little mutagenicity to a level causing no problem. For investigating the gene mutagenesis of the compounds of the invention, herein carried out was a reverse mutation test with histidine-requiring Salmonella typhimurium TA100 and TA98 strains. Two tests were carried out. One is a test for dose determination test; and the other is for mutagenicity.
The test methods and the mutagenicity of the compounds of the invention are mentioned below. In the dose determination test, six doses of 0.160, 0.800, 4.00, 20.0, 100 and 500 μg/plate (common ratio 5) were tried.
As a result of the dose determination test, when the mutagenicity of the test compound was admitted, then the actual test for mutagenicity was carried out, using the dose capable of giving an accurate dose-reaction curve. When no mutagenicity of the test compound was admitted in the dose determination test and when the growth inhibition of the test cells was admitted therein, then the dose to present the growth inhibition was taken as the maximum dose; and when the growth inhibition was not admitted, then a dose of 5000 μg/plate was taken as the maximum dose. With that, the actual test for mutagenicity was carried out on the level of 6 doses (common ratio 2).
First, a test compound was dissolved or suspended in DMSO, then diluted in order to prepare test compound liquids having a varying concentration.
100 μl of a test compound liquid or a negative control (DMSO) solution was put into a sterilized test tube. Then, for the case in the absence of a metabolic activation system (−S9mix), 500 μl of 0.1 mol/liter sodium-phosphate buffer (pH 7.4) was added to it; and for the case in the presence of a metabolic activation system (+S9mix), 500 μl of S9mix was added to it.
Next, 100 μl of the test strain suspension that had been cultivated with shaking at 37° C. for 8 hours was added to it, and preincubated in a shaking thermostat at 37° C. for 20 minutes. After shaken, 2 ml of top agar was added to it, and the contents were mixed.
Next, the mixture was poured onto a minimal glucose agar plate medium (plate) and spread uniformly thereon, then the top agar was solidified, and the plate was transferred into a thermostat and incubated at 37° C. for 48 hours.
Then, the number of the colonies grown through reverse mutation was counted.
For counting it, […]. After area correction and miss-counting correction, the number of the colonies was computed. When the colony analyzer could not be used owing to the deposition of the test compound or the cell growth inhibition, then the number of the colonies was counted with the naked eye.
In case where the number of the colonies through reverse mutation increased two times or more that of the negative control and where the dose dependency or the reproducibility of the increase was admitted, then the tested sample was decided as positive. When the sample was decided as positive, then the relative activity that indicates the relative comparative value of the intensity of the mutagenicity of the test compound was obtained according to the following formula:
Relative Activity={(number of colonies per plate having the concentration)−(number of colonies per negative control plate)}/the value of concentration (mg/plate).

[3] = irrespective of the absence or presence of S9mix

SMILES: OCC(CF)Oc1ccc2nc(/C=C/c3cnc(N4CCCOCC4)s3)oc2c1 (centres unmarked) [THK-766, (E)-6-[(1-fluoromethyl-2-hydroxy)ethoxy]-2-[2-(2-homomorpholinothiazol-5-yl)ethenyl]benzoxazole]
- Maximum Permissible Dose [1]: ≧10 mg/kg
- binding to amyloid β protein in the brain section of an Alzheimer disease patient (amyloid β protein): The white space arrow indicates amyloid β protein

SMILES: CN(C)c1ccc(-c2nnc(-c3sc4cc(Cl)ccc4c3Cl)o2)cc1 [THK-262, [4-[5-(3,6-dichloro-benzo[b]thiophen-2-yl)-[1,3,4]oxadiazol-2-yl]-phenyl]-dimethylamine]
- binding to amyloid β protein in the brain section of an Alzheimer disease patient (amyloid β protein): bound to the amyloid β protein

SMILES: OCC(CF)Oc1ccc2nc(/C=C/c3cnc(N4CCCC4)s3)oc2c1 (centres unmarked) [THK-752, (E)-6-[(1-fluoromethyl-2-hydroxy)ethoxy]-2-[2-[2-(pyrrolidin-1-yl)-thiazol-5-yl]ethenyl]benzoxazole]
- Maximum Permissible Dose [1]: ≧10 mg/kg
- relative activity [2, 3]: minus
- binding to amyloid β protein in the brain section of an Alzheimer disease patient (amyloid β protein): The white space arrow indicates amyloid β protein

SMILES: CN(C)c1ccc(/C=C/C23NC(=O)CN2c2ccc(Br)cc2C3(C)C)cc1 (centres unmarked) [THK-556, 7-bromo-9a-[2-(4-dimethylamino-phenyl)-vinyl]-9,9-dimethyl-9,9a-dihydro-1H-imidazo[1,2-a]indol-2-one]
- binding to amyloid β protein in the brain section of an Alzheimer disease patient (amyloid β protein): bound to the amyloid β protein

SMILES: CN(C)c1ccc(/C=C\C=C2C(=O)c3ccccc3C2=O)cc1 [THK-248, 2-[3-(4-dimethylamino-phenyl)-allylidene]-indane-1,3-dione]
- binding to amyloid β protein in the brain section of an Alzheimer disease patient (amyloid β protein): bound to the amyloid β protein

SMILES: O=C1Nc2ccc(Cl)cc2/C1=C/c1ccc(N2CCOCC2)cc1 [THK-276, 5-chloro-3-(4-morpholin-4-yl-benzylidene)-1,3-dihydroindol-2-one]
- binding to amyloid β protein in the brain section of an Alzheimer disease patient (amyloid β protein): bound to the amyloid β protein

SMILES: CN1CCN(c2ncc(/C=C/c3nc4ccc(OC(CO)CF)cc4o3)s2)CC1 (centres unmarked) [THK-707, (E)-6-[(1-fluoromethyl-2-hydroxy)ethoxy]-2-[2-[2-(4-methylpiperazin-1-yl)thiazol-5-yl]ethenyl]benzoxazole]
- Maximum Permissible Dose [1]: ≧10 mg/kg
- relative activity ([2]; in the presence of S9mix): weak

SMILES: CN1CCN(c2ccc(/C=C(\C#N)c3nc4ccccc4[nH]3)o2)CC1 [THK-207, 2-(1H-benzimidazol-2-yl)-3-[5-(4-methyl-piperazin-1-yl)-furan-2-yl]-acrylonitrile]
- binding to amyloid β protein in the brain section of an Alzheimer disease patient (amyloid β protein): bound to the amyloid β protein

SMILES: O=C1Nc2ccc(Cl)cc2/C1=C/c1ccc(N2CCOCC2)s1 [THK-308, 5-chloro-3-(5-morpholin-4-yl-thiophen-2-ylmethylene)-1,3-dihydroindol-2-one]
- binding to amyloid β protein in the brain section of an Alzheimer disease patient (amyloid β protein): bound to the amyloid β protein

SMILES: CN(C)c1ccc(/C=C/C23NC(=O)CN2c2ccccc2C3(C)C)cc1 (centres unmarked) [THK-562]
- binding to amyloid β protein in the brain section of an Alzheimer disease patient (amyloid β protein): bound to the amyloid β protein

SMILES: CCN(CC)c1ccc(/C=C/C23NC(=O)CN2c2ccccc2C3(C)C)cc1 (centres unmarked) [THK-563]
- binding to amyloid β protein in the brain section of an Alzheimer disease patient (amyloid β protein): bound to the amyloid β protein

SMILES: Cc1ccc2c(c1)C(C)(C)C1(/C=C/C=C/c3ccc(N(C)C)cc3)NC(=O)CCN21 (centres unmarked) [THK-565, 10a-[4-(4-dimethylamino-phenyl)-buta-1,3-dienyl]-8,10,10-trimethyl-3,4,10,10a-tetrahydro-1H-pyrimido[1,2-a]indol-2-one]
- binding to amyloid β protein in the brain section of an Alzheimer disease patient (amyloid β protein): bound to the amyloid β protein

SMILES: OCC(CF)Oc1ccc2nc(/C=C/c3cnc(N4CCCCCC4)s3)oc2c1 (centres unmarked) [THK-765, (E)-6-[(1-fluoromethyl-2-hydroxy)ethoxy]-2-[2-[2-(homopiperidin-1-yl)thiazol-5-yl]ethenyl]benzoxazole]
- Maximum Permissible Dose [1]: ≧10 mg/kg

SMILES: OCC(CF)Oc1ccc2nc(/C=C/c3cnc(N4CCCOC4)s3)oc2c1 (centres unmarked) [THK-757, (E)-6-[(1-fluoromethyl-2-hydroxy)ethoxy]-2-[2-[2-([1,3]oxadinan-3-yl)-thiazol-5-yl]ethenyl]benzoxazole]
- Maximum Permissible Dose [1]: ≧10 mg/kg

SMILES: Cc1ccc2c(c1)C(C)(C)[C@@]1(/C=C/C=C/c3ccc(N(C)C)cc3)NC(=O)CCN21 (stereo in doubt) [THK-585, 10a-[4-(4-dimethylamino-phenyl)-buta-1,3-dienyl]-8,10,10-trimethyl-3,4,10,10a-tetrahydro-1H-pyrimido[1,2-a]indol-2-one]
- binding to amyloid β protein in the brain section of an Alzheimer disease patient (amyloid β protein): bound to the amyloid β protein

SMILES: c1csc(-c2nnc(-c3ccc(N4CCOCC4)cc3)o2)c1 [THK-383, 4-[4-(5-thiophen-2-yl-[1,3,4]oxadiazol-2-yl)-phenyl]-morpholine]
- binding to amyloid β protein in the brain section of an Alzheimer disease patient (amyloid β protein): bound to the amyloid β protein

SMILES: COc1ccccc1-c1nnc(-c2ccc(N3CCOCC3)cc2)o1 [THK-385]
- binding to amyloid β protein in the brain section of an Alzheimer disease patient (amyloid β protein): bound to the amyloid β protein

SMILES: N#C/C(=C\c1ccc(N2CCOCC2)o1)c1nc2ccccc2[nH]1 [THK-203, 2-(1H-benzimidazol-2-yl)-3-(5-morpholin-4-yl-furan-2-yl)-acrylonitrile]
- binding to amyloid β protein in the brain section of an Alzheimer disease patient (amyloid β protein): bound to the amyloid β protein

SMILES: OCC(CF)Oc1ccc2nc(/C=C/c3cnc(N4CCCCC4)s3)oc2c1 (centres unmarked) [THK-713]
- Maximum Permissible Dose [1]: ≧10 mg/kg
- relative activity [2, 3]: minus

SMILES: CC1CN2c3ccccc3C(C)(C)C2(/C=C/c2ccc(N(C)C)cc2)NC1=O (centres unmarked) [THK-559, 10a-[2-(4-dimethylamino-phenyl)-vinyl]-3,10,10-trimethyl-3,4,10,10a-tetrahydro-1H-pyrimido[1,2-a]indol-2-one]
- binding to amyloid β protein in the brain section of an Alzheimer disease patient (amyloid β protein): bound to the amyloid β protein

SMILES: C(=C\c1nc2c(ccc3ccccc32)s1)/c1ccc(N2CCOCC2)cc1 [THK-281, 2-[2-(4-morpholin-4-yl-phenyl)-vinyl]naphthol[1,2-d]thiazole]
- binding to amyloid β protein in the brain section of an Alzheimer disease patient (amyloid β protein): bound to the amyloid β protein

SMILES: CC1(C)c2ccccc2N2CCC(=O)NC21/C=C/c1ccc(N2CCOCC2)cc1 (centres unmarked) [THK-336]
- relative activity [2, 3]: minus

SMILES: CN(C)c1ccc(/C=C/C23NC(=O)CCN2c2ccc(Br)cc2C3(C)C)cc1 (centres unmarked) [THK-558, 8-bromo-10a-[2-(4-dimethylamino-phenyl)-vinyl]-10,10-dimethyl 1-3,4,10,10a-tetrahydro-1H-pyrimido[1,2-a]indol-2-one]
- binding to amyloid β protein in the brain section of an Alzheimer disease patient (amyloid β protein): bound to the amyloid β protein

SMILES: N#CC(C#N)=Cc1ncc(/C=C/c2nc3ccc(OCC(CO)CF)cc3o2)s1 (centres unmarked) [THK-683]
- relative activity [2, 3]: minus
